These results are taken from PubChem BioAssay (NCI).

Each structure is given as a SMILES string. Values joined by “and” are separate entries in the source; they are usually repeats but may differ in a detail not shown here. Identical values can stand only once.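 Tested at 5 concentrations; 48 h exposure; 96-well plates; endpoints linearly interpolated, else capped at highest concentration. GI50 is the concentration that inhibits growth by half. Definition used: TGI = concentration required for complete inhibition of growth.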

What all share (assay): inhibition of tumour cell growth, NCI panel, 48 h
Assay [1] deals with 786-0 renal.
Assay [2] deals with CAKI-1 renal.
Assay [3] concerns SK-OV-3 ovarian.
Assay [4] has as its system RPMI-8226 leukemia.
The test system of assay [5] is RXF 393 renal.
Assay [6] relates to BT-549 breast.
Assay [7] deals with OVCAR-5 ovarian.

In the case of `COc1ccc(-c2c3c(n(C4OC(COC(C)=O)C(OC(C)=O)C(OC(C)=O)C4OC(C)=O)c(=S)c2C#N)CC(C)(C)CC3=O)cc1` (centres undefined), the GI50 was 36.3 µM and > 100 µM in assay [1]; 20.2 µM and > 100 µM in assay [5]. Also, the TGI was above 100 µM in assay [1]; above 100 µM in assay [2]; above 100 µM in assay [3]; 72.1 µM and > 100 µM in assay [4]; 71.8 µM and > 100 µM in assay [5]; 93.3 µM and > 100 µM in assay [6]. In addition, in assay [7], the TGI was above 100 µM.

Regarding `CN(Cc1cc(Cl)cc(Cl)c1)CC(C(=O)c1ccccc1)c1ccccc1` (centres undefined), the TGI was 10.4 µM in assay [1]; 9.07 µM in assay [2]; above 100 µM in assay [3]; above 100 µM in assay [4]; above 25.6 µM in assay [5]; 17.6 µM in assay [6]. Moreover, in assay [7], the TGI stood at 19.1 µM.

For `COc1nc(N)nc2c1ncn2C1OC(CO)C(O)C1O` (centres undefined), the GI50 in assay [1] was above 5000 µM; in assay [2], 3120 µM; in assay [3], 2430 µM; in assay [4], 3580 µM; in assay [5] it was 2.32 µM; in assay [6] it was above 5000 µM. Also, the GI50 in assay [7] was above 5000 µM. For the same molecule, the TGI in assay [1], in assay [2], in assay [3], in assay [4], in assay [6] and in assay [7] was above 5000 µM in each case.

As for `COC(=O)c1cc(O)c2c(c1C(=O)OC)C[C@H]1[C@@H]3CC=C4C[C@@H](O)CC[C@]4(C)[C@H]3CC[C@]21C`, the GI50 was 2.42 µM in assay [1]; 2.89 µM in assay [2]; 4.75 µM in assay [3]; 1.57 µM in assay [4]; 1.19 µM in assay [5]; 2.29 µM in assay [6]. The GI50 in assay [7] is 4.82 µM. Further, the TGI in assay [1] worked out at 6.7 µM; in assay [2], 9.07 µM; in assay [3] it was 27.4 µM; in assay [4] it was 4.96 µM; in assay [5], 3.39 µM; in assay [6], 6.98 µM. For the same molecule, the TGI in assay [7] worked out at 23.9 µM.

Consider `Cc1nc(N2CCC3(CC2)CO[C@@H](C)[C@H]3N)c(CO)nc1Sc1ccnc(N)c1Cl`, for which the GI50 in assay [1] was 12.8 µM; in assay [2] it was 0.194 µM; in assay [3], 0.789 µM; in assay [4], 49.3 µM; in assay [5], 2.53 µM; in assay [6], 6.56 µM. The GI50 in assay [7] was above 100 µM. Also, the TGI in assay [1] was above 100 µM; in assay [2], above 100 µM; in assay [3], above 100 µM; in assay [4], above 100 µM; in assay [5], above 30.6 µM; in assay [6] it was above 100 µM. The molecule further registered a TGI in assay [7] above 100 µM.

For `CCOC(=O)CC1C(COC(=O)NC)OC(n2cnc3c(NC(=O)Nc4ccccc4)ncnc32)C1O[Si](C)(C)C(C)(C)C` (centres undefined), the GI50 in assay [1] is 7.94 µM; in assay [2], 3.72 µM; in assay [3], 40.4 µM; in assay [4], 2.16 µM; in assay [5], 2.94 µM; in assay [6], 2.07 µM. Moreover, the GI50 in assay [7] was 12.8 µM. Moreover, the TGI was 21.5 µM in assay [1]; 38.8 µM in assay [2]; above 100 µM in assay [3]; 5.48 µM in assay [4]; 12.4 µM in assay [5]; 6.71 µM in assay [6]. This molecule gave a TGI in assay [7] of 39.7 µM.

As for `CC(C)(C)CC(C)(C)NCc1cc(C(C)(C)C)cc(CNC(C)(C)CC(C)(C)C)c1O`, the GI50 was 3.85 µM in assay [1]; 3.69 µM in assay [2]; 2.52 µM in assay [3]; 2.46 µM in assay [4]; 1.92 µM in assay [5]; 4.15 µM in assay [6]. Also, in assay [7], the GI50 was 3.02 µM. Also, the TGI in assay [1] was found to be 14.4 µM; in assay [2], 17.2 µM; in assay [3], 8.45 µM; in assay [4] it was 6.49 µM; in assay [5] it was 5.85 µM; in assay [6] it was 14.9 µM. The molecule further registered a TGI in assay [7] of 10 µM.

Consider `Cc1cccc(C)c1NC(=O)Nc1ccc(S(N)(=O)=O)cc1`, for which the TGI in assay [1], in assay [2], in assay [3], in assay [4], in assay [5] and in assay [6] was above 100 µM in each case. Further, the TGI in assay [7] was above 100 µM.

For the molecule `COc1ccccc1CNCCCN1C(=O)c2ccc3c4c(ccc(c24)C1=O)C(=O)N(CCCCNCCCN)C3=O`, the GI50 in assay [1] is 2.25 µM; in assay [2], 13.1 µM; in assay [3], 3.74 µM; in assay [4], 1.91 µM; in assay [5] it was 0.807 µM; in assay [6], 2.23 µM. Also, in assay [7], the GI50 is 2.95 µM. The TGI came to 9.35 µM in assay [1]; 34.8 µM in assay [2]; 15.9 µM in assay [3]; 10.7 µM in assay [4]; 2.3 µM in assay [5]; 4.51 µM in assay [6]. This molecule registered a TGI in assay [7] of 9.02 µM.

Turning to `Cn1c2ccc(Br)cc2c2c3c(c4c5ccccc5[nH]c4c21)C(=O)N(O)C3=O`, the GI50 was 0.174 µM in assay [1]; 0.22 µM in assay [2]; 0.265 µM in assay [3]; 0.151 µM in assay [4]; 0.158 µM in assay [5]; 0.149 µM in assay [6]. Further, the GI50 in assay [7] is 1.33 µM. Further, the TGI came out at 0.421 µM in assay [1]; 0.885 µM in assay [2]; 0.773 µM in assay [3]; 0.672 µM in assay [4]; 0.329 µM in assay [5]; 0.45 µM in assay [6]. The same molecule had a TGI in assay [7] of 3.73 µM.

Take `COc1cc(-c2nc(-c3nc4ccccc4[nH]3)cc3c2[nH]c2ccccc23)cc(OC)c1OC`: the GI50 in assay [1] was 50.7 µM; in assay [2], 7.03 µM; in assay [3], above 100 µM; in assay [4] it was 2.15 µM; in assay [5], 3.25 µM; in assay [6] it was 5.48 µM. Also, the GI50 in assay [7] was above 100 µM. Further, the TGI in assay [1] was above 100 µM; in assay [2], above 100 µM; in assay [3], above 100 µM; in assay [4], 8.61 µM; in assay [5], above 100 µM; in assay [6], above 100 µM. This molecule showed a TGI in assay [7] above 100 µM.
